The test concerns NK-92 cells. Nature of the test: Lytic granule protein expression in NK-92 (flow cytometry, Western blot). The class given is cell-based, Human. On the procedure:
Total cell lysate was prepared with modified RIPA buffer (1M Tris-HCl (pH 7.5), 5M NaCl, 0.25% sodium deoxycholate, 10% NP-40 and 10 mM sodium fluoride) supplemented with ethylenediaminetetraacetic acid (EDTA)-free protease inhibitor (Roche™) and 2 mM sodium orthovanadate (Sigma-Aldrich™). Protein levels were quantified by bicinchoninic acid (BCA) assay. Protein lysate was separated by 10% SDS-PAGE and Western analysis was performed using primary antibodies listed in the tables below followed with horseradish peroxidase (HRP, 1:10,000, Jackson ImmunoResearch™) conjugated secondary antibodies.
NK-92 cells pre-treated with L598 (30 μM) or vehicle control were stimulated with K-562 tumor target cells [effector: target (E:T) at 1:1] or PMA/lonomycin (1 μg/mL each) or no-stimulation control with K-562 complete media, respectively. Anti-CD107a or LAMP-1 antibody (1:100, PE/Cy7 conjugated, clone H4A3, from BioLegend®) was added to cells at the start of degranulation assay. Golgi stop (containing Monensin, 1 μM) and Golgi plug (containing Brefeldin A, 4 μg/mL) were added to cells one hour after degranulation assay started and were kept until the end of the 6-hour-degranulation assay. Intracellular staining of GrB (1:40, PE conjugated, clone QA18A28, from BioLegend®) and PRF (1:40, FITC conjugated, clone B-D48, from BioLegend®) were performed with the Fixation/Permeabilization Solution Kit (BD® Biosciences) according to the manufacture's protocol. Cells were stained with fixable viability dye (1:2000) for 20 mins on ice and in dark, and blocked with FcBlock (1:20, diluted in 1× Perm/Wash buffer, Human truStain FcX from BioLegend®) for 5 mins at room temperature and in dark before intracellular staining. Cell gating and percentage of population quantification was based on no-stimulation control. For kinetics of degranulation assay, measurements were taken over three hours at 15 mins, 30 mins, 60 mins, 120 mins and 180 mins, with L598 (30 μM, three days) treated group and vehicle control group under the condition of tumor target cell K-562 stimulation (E: T at 1:1) or no stimulation. Intracellular cytolytic granule contents GrA, GrB and PRF were measured as mentioned previously.

For the substance “7-bromo-6-phosphono(difluoro-methyl)-3-napthalenonitrile [L598]”, for the setting “IL-2 titration, 30 μM”, the “thresholds of maximal expression of perforin and granzyme B” value is “upregulated”. Also, the “fold increase of perforin and granzyme B MFI over vehicle control” value (day three, IL-2 1250 IU/mL, 30 μM) is reported as “approximately two-fold”. For the same substance, the “protein expression of perforin and granzyme B” value (gradual increasing concentration, three days) is given as “upregulated in a dosage dependent manner”. Moreover, under “inhibitor withdrawn three consecutive days”, the “maximal expression of lytic granules after withdrawal, vs control” value is given as “similar”. Besides, the “fold change of perforin and granzyme B after withdrawal” value (inhibitor withdrawn three consecutive days, IL-2 titration) is “around one-fold”. Further, the “fold change of intracellular perforin and granzyme over control” value (one-day treatment, IL-2 titration, 30 μM) is “started improving”. The “granzyme A protein expression” value (with or without inhibitor treatment) is “relatively stable”. The “granzyme B expression, treatment vs control group, without IL-2” value (without IL-2 stimulation) was “almost no difference”.

For the origin of these results see patent US20250025500A1, “PHOSPHATASE INHIBITORS AS NK CELLS MODULATORS FOR THE TREATMENT OF CANCER” (Kanyr Pharma Inc., priority 2021, published 2025).
